Experimental findings from patent EP1272183B1, “METHODS AND COMPOSITIONS USEFUL IN ENHANCING OXYGEN DELIVERY TO CELLS” (Niadyne Corporation, priority 2000, dated 2001) are described below.

Each structure is given as a SMILES string.

The term logP denotes the decadic logarithm of the partition coefficient of the neutral form, usually between octanol and water. High values mean higher lipophilicity, low ones lower lipophilicity. The term chromatographic logP denotes a lipophilicity value derived from retention on a column. Higher therefore signals higher lipophilicity.

One data set has as its system skin of human volunteers. In words: Visual observation of vasodilation (blushing) after topical application of niacin ester lotions to the forearm. The format is in vivo. As to conditions: for Vasodilation at 0.1% / Vasodilation Effect at 0.1% Duration / Vasodilation Effect at 0.1% Onset: 0.1% in skin lotion; for Vasodilation at 0.1% / Vasodilation at 1.0%: anterior surface of forearm, visual observation of blushing; for Vasodilation at 1.0%: 1.0% in skin lotion; for Vasodilation Effect at 0.1% Duration / Vasodilation Effect at 0.1% Onset: visual determination. As to the method: This example details the first of two sets of experiments designed to determine the vasodilation effect of alkyl niacin esters. Formulations were prepared by combining the alkyl esters referred to supra in a skin lotion, at 0.1% and 1.0% concentrations. The lotions were applied topically to the skin of human volunteers on the anterior surface of a forearm. Vasodilation was observed visually, i.e., by observing blushing at the site of application, or lack thereof. Both onset and duration of vasodilation were measured.
Table 1: Properties of Niacin Esters

A short description of data set [1]: Determination of log P (Poct/w) values in accordance with Harnisch, et al. The format is physicochemical. The following applies: experimentally determined, following Harnisch.
Procedure: The Poct/w values for these compounds were determined in accordance with Harnisch, et al., J. Chromatog.
The next data set relates to skin. In words: Skin oxygen and CO2 content measured with a transcutaneous monitor after topical application. The format is in vivo, human. The method, then: To examine this issue, the oxygen content of skin to which the octyl ester discussed supra was determined directly, using a transcutaneous oxygen monitor. The 1% formulation of the octyl ester was applied to skin for 30 minutes. After this thirty minute period, the skin was cleaned with soap and water, wiped with an alcohol swab, and a drop of deionized water was placed on the sensor surface before its attachment to the anterior surface of the volunteers' forearms. The transcutaneous values were recorded constantly, and stored by the instrument. The monitor measures relative oxygen content, because the temperature at which the monitor operates does impact the oxygen permeability of the stratum corneum. See, e.g., Martin, Resp. […] The sensor was calibrated at 4 hour intervals, or whenever the sensor temperature was changed.
The monitor was operated at a temperature of 40°C. Values are given for both a control, and the formulation described herein.
In a follow-up experiment, the monitor was op erated at 38°C, and both O2 and CO2 were measured, with a combined transcutaneous oxygen and CO2 monitor. […] The control is represented by the dotted line.
Parallel experiments were carried out using 0.1% octyl niacin ester lotion, and a lotion containing octyl niacin ester (0.1 %), and 0.1 % butyl benzoate.
Oxygen content was measured in the same way as is described, supra, or using other techniques known to the art.

The mark [2] stands for this setting: monitor at 38°C, versus control, Figure 3.

In the case of `COC(=O)c1cccnc1` [1 carbon], in the data set with skin of human volunteers, the “Vasodilation at 0.1%” value is reported as “Yes” and the “Vasodilation at 1.0%” value is “Yes”.

In the case of `CCOC(=O)c1cccnc1` [2 carbons, Ethyl niacin], in the data set with skin of human volunteers, the “Vasodilation at 0.1%” value is reported as “Yes”, the “Vasodilation Effect at 0.1% Duration” value lay within 30 to 45 min, the “Vasodilation Effect at 0.1% Onset” value was in the range of 5 to 10 min and the “Vasodilation at 1.0%” value is reported as “Yes”.

`CCCCOC(=O)c1cccnc1` [4 carbons] showed a logP in data set [1] of 2.4. In addition, in the data set with skin of human volunteers, the “Vasodilation at 0.1%” value is on record as “Yes” and the “Vasodilation at 1.0%” value was “Yes”.

`CCCCCCOC(=O)c1cccnc1` [6 carbons, Hexyl niacin]: the logP in data set [1] is 3.5. Moreover, in the data set on skin of human volunteers, the “Vasodilation at 0.1%” value is recorded as “Yes”, the “Vasodilation Effect at 0.1% Duration” value was in the range of 60 to 90 min, the “Vasodilation Effect at 0.1% Onset” value lay in the range of 10 to 15 min and the “Vasodilation at 1.0%” value is “Yes”.

For `CCCCCCCCOC(=O)c1cccnc1` [8 carbons, Octyl niacin], the “skin oxygen (transcutaneous oxygen monitor)” value in the data set on skin (1% formulation applied to skin for 30 minutes, monitor at 40°C, versus control, Figure 2) is given as “sustained increase in skin oxygen”. In the data set with skin (setting [2]), the “CO2 content (combined transcutaneous oxygen and CO2 monitor)” value was “decrease in CO2 content”; the “skin oxygen content (combined transcutaneous oxygen and CO2 monitor)” value is on record as “sustained increase in skin oxygen content”. Moreover, in the data set with skin of human volunteers, the “Vasodilation at 0.1%” value was “Yes”, the “Vasodilation Effect at 0.1% Duration” value lay in the range of 240 to 360 min, the “Vasodilation Effect at 0.1% Onset” value lay within 10 to 20 min and the “Vasodilation at 1.0%” value is on record as “Yes”. For the same compound, the “Vasodilation Effect at 0.1% Duration” value with skin of human volunteers (listed as C8) is “longest effect”.

With `CCCCCCCCCOC(=O)c1cccnc1` [9 carbons], in the data set with skin of human volunteers, the “Vasodilation at 0.1%” value is reported as “No” and the “Vasodilation at 1.0%” value is recorded as “Yes”. In addition, in the data set on skin of human volunteers (listed as C9), the “Vasodilation at 1.0%” value is reported as “caused vasodilation”.

In data set [1], `CCCCCCCCCCOC(=O)c1cccnc1` [10 carbons] came in with a logP of 5.8. Besides, in the data set with skin of human volunteers, the “Vasodilation at 0.1%” value is given as “No” and the “Vasodilation at 1.0%” value is on record as “Yes”. The “Vasodilation at 1.0%” value in the data set on skin of human volunteers (listed as C10) is on record as “caused vasodilation”.

Turning to `CCCCCCCCCCCOC(=O)c1cccnc1` [11 carbons], in the data set on skin of human volunteers, the “Vasodilation at 0.1%” value is reported as “No” and the “Vasodilation at 1.0%” value is on record as “Slight”.

In data set [1] (octanol/water), `CCCCCCCCCCCCOC(=O)c1cccnc1` [12 carbons] came in with a logP of 6.6. In the data set with skin of human volunteers, the “Vasodilation at 0.1%” value is recorded as “No” and the “Vasodilation at 1.0%” value is “No”.

In the case of `CCCCCCCCCCCCCOC(=O)c1cccnc1` [13 carbons], in data set [1], the logP was determined as 7.5. Also, in the data set with skin of human volunteers, the “Vasodilation at 0.1%” value is recorded as “No” and the “Vasodilation at 1.0%” value is on record as “No”.

On to `CCCCCCCCCCCCCCOC(=O)c1cccnc1` [14 carbons], for which the logP in data set [1] (octanol/water) was 7.6. Besides, in the data set on skin of human volunteers, the “Vasodilation at 0.1%” value was “No” and the “Vasodilation at 1.0%” value was “No”.

`CCCCCCCCCCCCCCCOC(=O)c1cccnc1` [15 carbons] showed a logP in data set [1] of 8.3. Further, in the data set on skin of human volunteers, the “Vasodilation at 0.1%” value is reported as “No” and the “Vasodilation at 1.0%” value is recorded as “No”.

`CCCCCCCCCCCCCCCCOC(=O)c1cccnc1` [16 carbons] registered a logP in data set [1] of 9.2. Moreover, in the data set with skin of human volunteers, the “Vasodilation at 0.1%” value is “No” and the “Vasodilation at 1.0%” value is “No”.

As to `CCCCCCCCCCCCCCCCCCOC(=O)c1cccnc1` [18 carbons], the logP in data set [1] was found to be 9.7. In the data set on skin of human volunteers, the “Vasodilation at 0.1%” value is reported as “No” and the “Vasodilation at 1.0%” value is listed as “No”.

As for `CCCCOC(=O)c1ccccc1` [Butyl benzoate, reference compound], in the data set on skin (lotion containing octyl niacin ester (0.1 %) and 0.1 % butyl benzoate versus 0.1% octyl niacin ester lotion, Figure 4), the “effect on the increase in oxygen content caused by octyl niacin ester” value is listed as “blocked the increase in oxygen content”. The same compound showed a chromatographic logP in data set [1] (octanol/water) of 3.5.
